Assay results published in patent publication US11135214B2, “Methods for enhancing the bio availability and exposure of a voltage-gated potassium channel opener” (priority 2018, dated 2021).
“And” between values parts separate entries of the source, which are not always exact repeats. Equal values may be shown once. “Also recorded” adds a separate entry of the source. Read-outs that look alike come from different tables or passages of the source.

Key:
[1] = First-in-human SAD and MAD study, pharmacokinetics; format: in vivo; details: for half-life: human, plasma, oral
Method: A first-in-human study was conducted to evaluate the safety, tolerability and pharmacokinetics (PK) of single and multiple ascending doses (SAD and MAD) of oral Compound A.
In the SAD Phase, 32 healthy volunteers were randomized (3:1) to Compound A (5, 15, 20, 25 or 30 mg) or placebo. The study featured an adaptive design. A crossover food effect cohort (N=10) was also completed with single doses of 20 mg. A sub-set of 8 male subjects were also assessed with Transcranial Magnetic Stimulation (TMS) for effects on cortical excitability (see Examples 4 and 5).
Repeat doses of Compound A (15 mg QD) were evaluated in a fasted and fed state over 7 and 10 days, respectively. Repeat doses of Compound A (25 mg QD) were also evaluated in a fed state over 10 days.
Compound A was formulated as an immediate release capsule. Serial plasma PK samples were collected for all cohorts. Safety evaluations throughout the study included adverse event (AE) monitoring, clinical laboratory tests, vital signs, ECGs, physical examinations and Columbia-Suicide Severity Rating Scale.

[2] = Transcranial magnetic stimulation pilot study (RMT/AMT, TEPs, rEEG); details: male, human, in vivo
Method: (§1) In a pilot study TMS was used to non-invasively determine whether Compound A (10, 15 and 20 mg) impacts cortical excitability. The TMS pilot study was designed to inform sample size calculation for a larger randomized, double-blind and placebo-controlled TMS cross-over study (N=20) with Compound A.
(§2) Eight healthy, right-handed male subjects (aged 21-35 years, 62.4-95.4 kg) from a First-in-Human Phase 1 study were enrolled in this open-label TMS pilot study. RMT, TEPs and EEGs were recorded prior to Compound A, 2 and 4 h post dose. Spectral analysis was performed on resting EEGs. Single-subject level analyses were performed via multiple independent sample t-tests to determine effects of Compound A on TEP amplitudes. Multiple comparisons were accounted for using clusterbased permutation analysis.

[3] = system: cortical excitability; test: as above
Method: as §1, §2

[4] = system: cortical excitability; test: TMS crossover study, TMS-induced oscillations; format: in vivo, human
Method: Before drug intake, at baseline, TMS induced an early increase of theta/alpha power followed by a beta power decrease (de-synchronization) and a final late response of increased beta power. The effects of the active compound on TMS-induced oscillations were then analysed by means of a cluster-based permutation analysis following the same procedure as adopted in the analysis of TEPs. Theta (4-7 Hz), alpha (8-12 Hz) and beta (13-30 Hz) TMS-induced oscillations were compared from 30 ms (the first time-frequency point considered artefact free) to 800 ms between drug conditions. This method was preferred instead of a predetermined set of time windows, given the absence of a consensus for time windows of interest to be used in the TMS induced oscillation analysis. Also, the present cluster-based statistics approach is appropriate for exploratory analyses, as it minimizes false-positives involved in testing multiple time-points.

[5] = system: GABA-A receptor mediated intracortical inhibition; test: TMS crossover study, short-interval intracortical inhibition (SICI); format: in vivo, human; details: for Short Intracortical Inhibition (Mean Conditioned MEP/Mean Unconditioned MEP): individual subjects; for Short Intracortical Inhibition (Mean Conditioned MEP/Mean Unconditioned MEP) / Short Intracortical Inhibition (Mean Conditioned MEP/Mean Unconditioned MEP), Mean: ISI 2 ms; for Short Intracortical Inhibition (Mean Conditioned MEP/Mean Unconditioned MEP), Mean: mean of subjects
Method: Short-interval intracortical inhibition (SICI) was measured using 15 conditioning-test stimuli pairs given in a random order at an interstimulus interval (ISI) of 2 ms. The conditioning stimulus was set at 80% of AMT and the suprathreshold stimulus 120% RMT. The calculation of SICI utilized custom scripts to measure the amplitudes of conditioned and unconditioned motor evoked potentials (MEPs) and to express SICI as the ratio of mean conditioned MEPs over mean unconditioned MEPs.

[6] = at highest Compound A plasma concentration vs pre-dose

Cc1cc(N2CCc3cc(F)ccc3C2)cc(C)c1NC(=O)CC(C)(C)C [Compound A, N-[4-(6-fluoro-3,4-dihydro-1H-isoquinolin-2-yl)-2,6-dimethylphenyl]-3,3-dimethylbutanamide]
half-life ([1]; SAD, 5 mg fasted, N=3, Mean ± SD, read-out: T1/2 (converted)): 49.2 ± 31.1 h
half-life ([1]; SAD, 15 mg fasted, N=3, Mean ± SD, read-out: T1/2 (converted)): 41.9 ± 31.1 h
half-life ([1]; SAD, 20 mg fasted, N=6, Mean ± SD, read-out: T1/2 (converted)): 48.9 ± 14.7 h
half-life ([1]; SAD, 25 mg fed standard breakfast, N=6, Mean ± SD, read-out: T1/2 (converted)): 97.2 ± 18 h
half-life ([1]; SAD, 30 mg fasted, N=6, Mean ± SD, read-out: T1/2 (converted)): 63.4 ± 28.2 h
half-life ([1]; immediate release formulation, read-out: effective half-life): > 24 h
dose proportionality of exposure ([1]; multiple doses, fed state): exposure increased in proportion to dose
apparent steady state achieved ([1]; multiple doses, 90% CI of successive day's exposure ratio within 0.8-1.25): 6 to 9 days
peak to trough ratio ([1]; once a day dosing): low
attainment of steady state ([1]; once per day dosing, without titration): 1 week
concentration at 4 h ([2]; 10 mg): 23.1 ng/mL
concentration at 4 h ([2]; 15 mg): 36.3 ng/mL
concentration at 4 h ([2]; 20 mg): 50 ± 10 ng/mL
TEP modulation ([3]; 10 mg (N=2) and 15 mg (N=3)): did not show significant and robust TEP modulation
AMT ([3]; 10 mg, N=2): did not change AMT
SICI assessed with TMS/EMG ([3]; 10, 15, 20 mg): but not SICI
motor thresholds assessed with TMS/EMG ([3]; 10, 15, 20 mg, 2 and 4 hours post-drug): increased
RMT increase from baseline ([3]; 4 h post 20 mg): 4.3±0.6%
theta power in rEEG ([3]; 4 h post 20 mg): increased
suppression of TEP amplitude, peak at 180 ms (P180) ([3]; 4 h post 20 mg, p<0.01, N=3): 1.92±0.03 μV
Modulation of TMS-induced oscillations, Alpha ([4]; 2 h after dosing vs pre-dose): Not significant
Modulation of TMS-induced oscillations, Beta ([4]; 2 h after dosing vs pre-dose): Not significant
Modulation of TMS-induced oscillations, Theta ([4]; 2 h after dosing vs pre-dose): Not significant
Modulation of TMS-induced oscillations, Alpha ([4]; 4 h after dosing vs pre-dose): ↓ Alpha 250-390 ms
Modulation of TMS-induced oscillations, Beta ([4]; 4 h after dosing vs pre-dose): ↑ Beta 250-330 ms
Modulation of TMS-induced oscillations, Theta ([4]; 4 h after dosing vs pre-dose): ↓ Theta 30-180 ms
theta TMS-induced oscillations ([4]; all available subjects, 2 h post-dose): trend to suppress
alpha TMS-induced oscillations ([4]; all available subjects, 4 h, p=0.03, 250 to 400 ms): suppressed
theta induced oscillations ([4]; all available subjects, 6 h, p=0.03, 80 to 300 ms): significant depression
alpha band TMS-induced oscillations ([4]; all available subjects, 6 h, trend p=0.07, 270-390 ms): trend to suppress
Modulation of TMS-induced oscillations, Alpha [4, 6]: ↓ Alpha 220-400 ms
Modulation of TMS-induced oscillations, Beta [4, 6]: ↑ Beta 210-310 ms
Modulation of TMS-induced oscillations, Theta [4, 6]: ↓ Theta 30-390 ms
early theta TMS-induced oscillations ([4]; concentration analysis N=16, p<0.001, 30 to 390 ms): suppressed
alpha TMS-induced oscillations ([4]; concentration analysis N=16, p=0.02, 220 to 400 ms): suppressed
beta TMS-induced power ([4]; concentration analysis N=16, p=0.04, 220 to 310 ms): increased
TMS-induced oscillations ([4]; subjects with drug exposure, 2 h post-dose): did not modulate oscillations
early theta TMS-induced oscillations ([4]; subjects with drug exposure, 4 h, p=0.03, 30 to 180 ms): suppressed
alpha TMS-induced oscillations ([4]; subjects with drug exposure, 4 h, p=0.03, 250 to 390 ms): suppressed
beta TMS-induced desynchronization ([4]; subjects with drug exposure, 4 h, p=0.04, 250 to 330 ms): increased
theta induced oscillations ([4]; subjects with drug exposure, 6 h, p<0.001, 30 to 280 ms): significant depression
SICI (mean conditioned MEPs/mean unconditioned MEPs) ([5]; 20 mg single dose): no significant findings; also recorded: lack of an effect on SICI
Short Intracortical Inhibition (Mean Conditioned MEP/Mean Unconditioned MEP) ([5]; 2 h post-dose): 0.71 and 0.72 and 1.29 and 0.91 (2×) and 0.94 and 1.11 and 0.96 and 1.18 and 2.68 and 0.92 (2×) and 0.97 and 1.12 and 1.31 and 1.09 and 1.03 and 0.85 and 0.67
Short Intracortical Inhibition (Mean Conditioned MEP/Mean Unconditioned MEP) ([5]; 4 h post-dose): 1.03 (2×) and 0.93 and 0.54 and 1.20 and 1.68 and 1.64 and 0.86 and 0.61 and 1.01 and 1.53 and 1.04 and 1.17 and 0.89 and 1.27 and 0.87 and 0.75 and 1.07 and 1.02
Short Intracortical Inhibition (Mean Conditioned MEP/Mean Unconditioned MEP), Mean ([5]; 2 h post-dose): 1.07
Short Intracortical Inhibition (Mean Conditioned MEP/Mean Unconditioned MEP), Mean ([5]; 4 h post-dose): 1.06
